Literature values in patent US8680270B2, “Metallo-oxidoreductase inhibitors using metal binding moieties in combination with targeting moieties” (Viamet Pharmaceuticals, Inc., priority 2006, dated 2014).
Like-named read-outs stand apart in the source and are kept apart here.

What was measured:
[1] = system: HO (heme oxygenase); design: dose or concentration left out as unconfirmed; conditions: broken cell preparations
[2] = target: T1, sGC (Homo sapiens, UniProt Q02153); design: dose or concentration left out as unconfirmed; conditions: broken cell preparations
T1 sequence (Q02153 1-619): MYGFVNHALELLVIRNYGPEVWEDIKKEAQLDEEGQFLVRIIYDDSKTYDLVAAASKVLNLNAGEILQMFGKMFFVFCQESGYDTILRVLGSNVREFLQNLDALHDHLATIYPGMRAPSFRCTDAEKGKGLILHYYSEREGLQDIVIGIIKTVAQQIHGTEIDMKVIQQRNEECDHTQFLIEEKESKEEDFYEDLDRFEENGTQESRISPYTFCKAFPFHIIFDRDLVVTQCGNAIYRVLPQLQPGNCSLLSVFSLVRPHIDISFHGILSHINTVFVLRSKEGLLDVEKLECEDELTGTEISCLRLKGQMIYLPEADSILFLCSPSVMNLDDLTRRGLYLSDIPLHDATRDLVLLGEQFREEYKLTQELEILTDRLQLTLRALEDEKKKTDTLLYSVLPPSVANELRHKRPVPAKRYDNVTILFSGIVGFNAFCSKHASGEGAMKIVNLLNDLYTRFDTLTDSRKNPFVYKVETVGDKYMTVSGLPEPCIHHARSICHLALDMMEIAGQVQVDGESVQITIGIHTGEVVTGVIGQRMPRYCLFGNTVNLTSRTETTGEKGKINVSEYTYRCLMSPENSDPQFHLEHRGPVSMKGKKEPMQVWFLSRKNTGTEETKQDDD
T1 sequence (Q02108 1-690 partner): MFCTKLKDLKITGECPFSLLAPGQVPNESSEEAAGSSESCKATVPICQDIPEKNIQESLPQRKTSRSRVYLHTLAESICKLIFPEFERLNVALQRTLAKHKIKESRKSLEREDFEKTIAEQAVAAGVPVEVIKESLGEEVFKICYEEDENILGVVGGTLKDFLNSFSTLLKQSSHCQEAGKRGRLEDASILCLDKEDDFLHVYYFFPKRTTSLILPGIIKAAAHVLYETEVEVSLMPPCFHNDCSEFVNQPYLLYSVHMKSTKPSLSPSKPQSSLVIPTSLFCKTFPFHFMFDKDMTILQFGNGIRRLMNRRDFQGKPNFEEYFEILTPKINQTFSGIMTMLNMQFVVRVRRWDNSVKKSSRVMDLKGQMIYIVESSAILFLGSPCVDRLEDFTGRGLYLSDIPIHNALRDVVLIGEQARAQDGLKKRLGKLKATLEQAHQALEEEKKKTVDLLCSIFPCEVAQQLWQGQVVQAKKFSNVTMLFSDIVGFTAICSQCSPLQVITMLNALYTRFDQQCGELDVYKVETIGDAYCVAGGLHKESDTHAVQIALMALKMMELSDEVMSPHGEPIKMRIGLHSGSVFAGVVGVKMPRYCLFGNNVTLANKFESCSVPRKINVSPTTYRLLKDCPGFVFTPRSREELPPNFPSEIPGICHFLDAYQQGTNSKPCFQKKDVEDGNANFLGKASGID

[3] = system: NOS; design: dose or concentration left out as unconfirmed; conditions: broken cell preparations
[4] = system: Plasmodium falciparum
[5] = system: Plasmodium falciparum; remark: listed apart in the source
[6] = system: androgen-dependent Dunning-H tumor; conditions: 120 mg/100 gm food, equivalent to 100 mg/kg per day
[7] = system: androgen-independent, anaplastic AT-6 tumors; conditions: 120 mg/100 gm food, equivalent to 100 mg/kg per day

## chromium mesoporphyrin IX [CrMP]
[1]
  Inhibition of HO: 90%
[2]
  Effect on sGC: little or no effect
[3]
  Effect on NOS: little or no effect

## O=CN(O)CCCP(=O)(O)O [fosmidomycin]
[4]; Gabon, seven out of nine subjects
  Subjects cured on day 28: 78%
[4]; Thailand, two out of nine subjects
  Subjects cured on day 28: 22%
[4]; oral 1,200 mg every 8 h for 7 days
  Clinical and parasitological cure on day 7 (primary end point): All subjects were clinically and parasitologically cured
[4]; oral 1,200 mg every 8 h for 7 days, mild gastrointestinal side effects in five subjects
  Tolerability: well tolerated
[5]; 1.2 g every 8 h for 3 days, six of ten
  Cure rate by day 14: 60%
[5]; 1.2 g every 8 h for 4 days, seven of eight
  Cure rate by day 14: 88%
[5]; 1.2 g every 8 h for 5 days, eight of nine
  Cure rate by day 14: 89%
[5]; all treatment regimens, 1.2 g every 8 h for 5, 4 or 3 days
  Tolerability: well tolerated

## Clc1cccc(C(c2ccc3[nH]cnc3c2)n2ccnc2)c1 (stereo not shown) [Liarozole]
[6]
  Median tumor volume decrease: 60%
[7]
  Reduction of tumor growth: −73%
